From patent US11713338B2, “Cyclic peptides multimers targeting α-4-β-7 integrin” (priority 2016, dated 2023)

Assays:
[1] = target: T1, recombinant integrin α4β7 (Homo sapiens, UniProt P13612+P26010, DEL724-798); experiment: Integrin α4β7—MAdCAM-1 ELISA competition assay; type: binding; details: for ELISA Assay Ratio b1/b7: ratio of a4b1 to a4b7 ELISA IC50; for IC50: read-out: ELISA a4b7 Assay IC50
T1 construct: purchased R&D Systems 5397-A3-050
T1 sequence (P13612 34-970 limits assumed): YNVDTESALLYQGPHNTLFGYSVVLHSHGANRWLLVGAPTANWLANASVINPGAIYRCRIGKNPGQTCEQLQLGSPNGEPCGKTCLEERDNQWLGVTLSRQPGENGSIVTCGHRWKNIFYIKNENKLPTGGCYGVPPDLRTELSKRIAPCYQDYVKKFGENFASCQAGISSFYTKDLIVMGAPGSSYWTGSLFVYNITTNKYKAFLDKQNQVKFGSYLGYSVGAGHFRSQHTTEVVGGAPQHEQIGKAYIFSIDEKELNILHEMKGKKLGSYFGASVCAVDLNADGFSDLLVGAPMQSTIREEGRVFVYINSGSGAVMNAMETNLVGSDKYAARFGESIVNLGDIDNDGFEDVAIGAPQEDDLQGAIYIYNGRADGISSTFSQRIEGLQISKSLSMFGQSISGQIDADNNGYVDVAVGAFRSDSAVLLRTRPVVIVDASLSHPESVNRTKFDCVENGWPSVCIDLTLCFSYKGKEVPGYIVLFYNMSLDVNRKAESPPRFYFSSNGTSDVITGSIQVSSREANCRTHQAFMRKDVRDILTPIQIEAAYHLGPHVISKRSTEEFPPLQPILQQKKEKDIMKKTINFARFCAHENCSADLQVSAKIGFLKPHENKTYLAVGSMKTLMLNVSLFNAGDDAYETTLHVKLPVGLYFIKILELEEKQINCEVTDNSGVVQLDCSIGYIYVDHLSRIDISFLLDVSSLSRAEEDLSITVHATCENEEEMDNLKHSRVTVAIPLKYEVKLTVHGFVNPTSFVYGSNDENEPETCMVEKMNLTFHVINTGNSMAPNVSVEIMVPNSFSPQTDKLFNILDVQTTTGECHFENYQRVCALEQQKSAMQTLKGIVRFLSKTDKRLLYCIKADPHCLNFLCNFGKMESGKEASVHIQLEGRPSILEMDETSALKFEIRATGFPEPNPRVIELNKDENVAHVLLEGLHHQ
T1 sequence (P26010 20-723 limits assumed): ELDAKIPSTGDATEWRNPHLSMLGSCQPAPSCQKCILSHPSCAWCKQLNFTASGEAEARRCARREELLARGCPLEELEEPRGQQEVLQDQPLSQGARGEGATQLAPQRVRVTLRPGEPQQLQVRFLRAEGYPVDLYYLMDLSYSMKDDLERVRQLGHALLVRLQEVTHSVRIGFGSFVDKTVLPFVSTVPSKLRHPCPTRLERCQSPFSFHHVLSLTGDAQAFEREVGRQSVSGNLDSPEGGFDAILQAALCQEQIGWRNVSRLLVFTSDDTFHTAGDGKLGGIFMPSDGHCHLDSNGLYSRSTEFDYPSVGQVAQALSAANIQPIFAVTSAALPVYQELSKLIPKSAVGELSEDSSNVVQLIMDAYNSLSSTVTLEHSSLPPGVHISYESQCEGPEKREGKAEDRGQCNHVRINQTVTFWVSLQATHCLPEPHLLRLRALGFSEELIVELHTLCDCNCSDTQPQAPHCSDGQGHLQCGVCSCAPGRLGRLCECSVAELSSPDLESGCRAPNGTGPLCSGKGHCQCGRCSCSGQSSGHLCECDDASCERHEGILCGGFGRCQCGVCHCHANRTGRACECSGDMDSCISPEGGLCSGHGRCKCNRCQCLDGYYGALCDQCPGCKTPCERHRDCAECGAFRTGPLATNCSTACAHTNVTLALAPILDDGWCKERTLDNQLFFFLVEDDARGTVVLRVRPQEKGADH

[2] = target: T2, recombinant integrin α4β1 (Homo sapiens, UniProt P05556+P13612); experiment: Integrin α4β1—VCAM-1 competition ELISA; type: binding; details: for IC50: read-out: ELISA a4b1 Assay IC50
T2 construct: purchased R&D Systems 5397-A3-050
Description: Integrin α4β1—VCAM-1 Competition ELISA
The plate was incubated at 4° C. overnight. […] The plate was then incubated for 1 hour at room temperature. The plate was washed three times with wash buffer (50 mM Tris, 100 mM NaCl, 1 mM MnCl2, 0.05% Tween). To each well, 50 μl of compound diluted in assay buffer was added by transfer from a compound serial dilution plate. […] The plate was incubated at room temperature with shaking (300 rpm) for 2 hours to reach binding equilibrium. Then the plate was washed three times in wash buffer and 100 μl anti-human IgG Fc specific-HRP (Abcam, Ab97225) diluted at 1:2000 in assay buffer was added to each well. The plate was incubated at room temperature for 1 hour under agitation.

T2 sequence (P05556 21-728 limits assumed, one chain of several): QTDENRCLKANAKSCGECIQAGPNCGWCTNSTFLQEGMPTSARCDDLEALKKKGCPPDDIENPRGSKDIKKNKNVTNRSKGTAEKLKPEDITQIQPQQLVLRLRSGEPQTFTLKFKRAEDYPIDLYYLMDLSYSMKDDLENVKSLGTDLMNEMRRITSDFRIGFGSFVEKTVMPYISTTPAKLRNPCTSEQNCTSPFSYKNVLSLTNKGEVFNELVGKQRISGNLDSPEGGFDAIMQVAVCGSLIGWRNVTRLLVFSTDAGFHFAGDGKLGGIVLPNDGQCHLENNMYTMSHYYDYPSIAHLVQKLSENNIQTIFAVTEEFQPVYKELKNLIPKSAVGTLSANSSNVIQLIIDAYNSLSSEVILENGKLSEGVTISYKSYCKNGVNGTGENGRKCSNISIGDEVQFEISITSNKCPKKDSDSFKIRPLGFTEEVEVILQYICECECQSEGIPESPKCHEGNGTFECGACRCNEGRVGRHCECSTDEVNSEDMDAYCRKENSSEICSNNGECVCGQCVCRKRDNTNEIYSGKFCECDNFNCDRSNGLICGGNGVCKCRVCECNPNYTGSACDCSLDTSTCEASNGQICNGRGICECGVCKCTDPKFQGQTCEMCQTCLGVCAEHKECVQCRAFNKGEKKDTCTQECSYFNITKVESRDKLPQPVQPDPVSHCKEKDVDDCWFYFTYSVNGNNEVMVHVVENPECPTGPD

Row | SMILES | ELISA Assay Ratio b1/b7 [1] | IC50 [1] | IC50 [2] | ELISA Assay Ratio β1/β7 ([2]; ratio of ELISA IC50s, α4β1 over α4β7)
1 | CC(C)C[C@@H]1NC(=O)[C@H](Cc2ccccc2)NC(=O)[C@@H]2C[C@@H](F)CN2[C@H](C(=O)NC(C)(C)C)[C@H](C)NC(=O)[C@H]([C@@H](C)O)NC(=O)[C@H](CC(=O)O)NC1=O [Compound 45] | 3.2 | 74 nM | 238 nM | –
2 | CC(C)C[C@@H]1NC(=O)[C@H](Cc2c[nH]cn2)NC(=O)[C@@H]2CCCN2[C@H](C(=O)NC(C)(C)C)[C@@H](CSc2ccccc2)NC(=O)[C@H](C(C)C)NC(=O)[C@H](CC(=O)O)NC1=O [Compound 2] | 1.697 | – | 185 nM | –
3 | COc1cccc(Cl)c1-c1ccc(C[C@@H]2NC(=O)[C@@H]3CCCN3[C@H](C(=O)NC(C)(C)C)[C@H](C)NC(=O)[C@H]([C@@H](C)O)NC(=O)[C@H](CC(=O)O)NC(=O)[C@H](CC(C)C)NC(=O)C[C@H](CCCCN)NC2=O)cc1 [Compound 269] | 31.6 | 56 nM | 1760 nM | –
4 | CC(C)C[C@@H]1NC(=O)[C@H]2C[C@H](O)CN2C(=O)[C@H](Cc2ccc(CN)cc2)NC(=O)[C@@H]2CCCN2[C@H](C(=O)NC(C)(C)C)[C@H](C)NC(=O)[C@H]([C@@H](C)O)NC(=O)[C@H](CC(=O)O)NC1=O [Compound 152] | 13.2 | 102 nM | 1350 nM | –
5 | CC(C)C[C@@H]1NC(=O)CN(C)C(=O)[C@H](Cc2csc(-c3ccccn3)n2)NC(=O)[C@@H]2CCCN2[C@H](C(=O)NC(C)(C)C)[C@H](C)NC(=O)[C@H]([C@@H](C)O)NC(=O)[C@H](CC(=O)O)NC1=O [Compound 179] | 15.2 | – | 2660 nM | –
6 | CC(C)C[C@@H]1NC(=O)[C@H]2CCCCN2C(=O)[C@H](Cc2cccc3ccccc23)NC(=O)[C@@H]2CCCN2[C@H](C(=O)NC(C)(C)C)[C@H](C)NC(=O)[C@H]([C@@H](C)O)NC(=O)[C@H](CC(=O)O)NC1=O [Compound 143] | 2.1 | 33 nM | 68 nM | –
7 | C[C@@H]1NC(=O)[C@H]([C@@H](C)O)NC(=O)[C@H](CC(=O)O)NC(=O)[C@H](CC(C)(C)C)NC(=O)[C@H]2CCCCN2C(=O)[C@H](Cc2ccc(O)cc2)NC(=O)[C@@H]2CCCN2[C@@H]1C(=O)NC(C)(C)C [Compound 150] | 8.2 | 54 nM | 447 nM | –
8 | CC(C)C[C@@H]1NC(=O)[C@H](CCc2ccccc2)NC(=O)[C@@H]2CCCN2[C@H](C(=O)NC(C)(C)C)[C@H](C)NC(=O)[C@H]([C@@H](C)O)NC(=O)[C@H](CC(=O)O)NC1=O [Compound 6] | 1.9 | 103 nM | 200 nM | –
9 | CC(C)C[C@@H]1NC(=O)C[C@H](CCCCN)NC(=O)[C@@H](CCCNC(=N)N)NC(=O)[C@@H]2CCCN2[C@H](C(=O)NC(C)(C)C)[C@H](C)NC(=O)[C@H]([C@@H](C)O)NC(=O)[C@H](CC(=O)O)NC1=O [Compound 217] | – | – | 1090 nM | –
10 | CC(C)C[C@@H]1NC(=O)[C@H]2CCCCN2C(=O)[C@H](Cc2ccc(O)cc2)N(C)C(=O)[C@@H]2CCCN2[C@H](C(=O)NC(C)(C)C)[C@H](C)NC(=O)[C@H]([C@@H](C)O)NC(=O)[C@H](CC(=O)O)NC1=O [Compound 148] | – | – | 105 nM | –
11 | CCO[C@H](C)[C@@H]1NC(=O)[C@H](CC(=O)O)NC(=O)[C@H](CC(C)C)NC(=O)[C@H](Cc2ccccc2)NC(=O)[C@@H]2CCCN2[C@H](C(=O)NC(C)(C)C)[C@H](C)NC1=O [Compound 41] | – | – | 106 nM | –
12 | CC[C@H](C)[C@@H]1NC(=O)[C@H](CC(=O)O)NC(=O)[C@H](CC(C)C)NC(=O)C[C@H](CCCCN)NC(=O)[C@H](Cc2ccc(CN)cc2)NC(=O)[C@@H]2CCCN2[C@H](C(=O)NC(C)(C)C)[C@H](C)NC1=O [Compound 215] | 12.4 | 33 nM | – | –
13 | COc1ccccc1-c1cccc(C[C@@H]2NC(=O)[C@@H]3CCCN3[C@H](C(=O)NC(C)(C)C)[C@H](C)NC(=O)[C@H]([C@@H](C)O)NC(=O)[C@H](CC(=O)O)NC(=O)[C@H](CC(C)C)NC(=O)C[C@H](CCCCN)NC2=O)c1 [Compound 257] | – | 58 nM | – | –
14 | CC(C)C[C@@H]1NC(=O)c2ccc(Br)c(c2)CNC(=O)[C@H](Cc2ccc(O)cc2)NC(=O)[C@@H]2CCCN2[C@H](C(=O)NC(C)(C)C)[C@H](C)NC(=O)[C@H]([C@@H](C)O)NC(=O)[C@H](CC(=O)O)NC1=O [Compound 336] | 5.6 | 162 nM | – | –
15 | CC(C)C[C@@H]1NC(=O)[C@H]2CCCCN2C(=O)[C@@H](Cc2cccc(-c3cccc4ncccc34)c2)NC(=O)[C@@H]2CCCN2[C@H](C(=O)NC(C)(C)C)[C@H](C)NC(=O)[C@H]([C@@H](C)O)NC(=O)[C@H](CC(=O)O)NC1=O [Compound 192] | – | 118 nM | – | –
16 | CC(C)C[C@@H]1NC(=O)C[C@H](CCCCN)N(C)C(=O)[C@H](CCCCNC(=O)c2cc(C(=O)O)cc(C(=O)NCCCC[C@@H]3NC(=O)[C@@H]4CCCN4[C@H](C(=O)NC(C)(C)C)[C@H](C)NC(=O)[C@H]([C@@H](C)O)NC(=O)[C@H](CC(=O)O)NC(=O)[C@H](CC(C)C)NC(=O)C[C@H](CCCCN)N(C)C3=O)c2)NC(=O)[C@@H]2CCCN2[C@H](C(=O)NC(C)(C)C)[C@H](C)NC(=O)[C@H]([C@@H](C)O)NC(=O)[C@H](CC(=O)O)NC1=O [Compound 537] | – | – | – | 0.4
17 | CC(C)C[C@@H]1NC(=O)CNC(=O)[C@H](Cc2ccc(CN)cc2)NC(=O)[C@@H]2CCCN2[C@H](C(=O)NC(C)(C)C)[C@H](C)NC(=O)[C@H]([C@@H](C)O)NC(=O)[C@H](CC(=O)O)NC1=O [Compound 165] | 22.8 | 128 nM | – | –
18 | CC(C)C[C@@H]1NC(=O)[C@H](Cc2cccnc2)NC(=O)[C@@H]2C[C@@H](O)CN2[C@H](C(=O)NC(C)(C)C)[C@H](C)NC(=O)[C@H]([C@@H](C)O)NC(=O)[C@H](CC(=O)O)NC1=O [Compound 44] | – | – | 188 nM | –
19 | CC(C)C[C@@H]1NC(=O)CN(C)C(=O)[C@H](Cc2cscn2)NC(=O)[C@@H]2CCCN2[C@H](C(=O)NC(C)(C)C)[C@H](C)NC(=O)[C@H]([C@@H](C)O)NC(=O)[C@H](CC(=O)O)NC1=O [Compound 164] | – | 127 nM | – | –
20 | CC(C)C[C@@H]1NC(=O)[C@H](Cc2csc(-c3cccnc3)n2)NC(=O)[C@@H]2CCCN2[C@H](C(=O)NC(C)(C)C)[C@H](C)NC(=O)[C@H]([C@@H](C)O)NC(=O)[C@H](CC(=O)O)NC1=O [Compound 96] | – | 138 nM | – | –
21 | CC(C)C[C@@H]1NC(=O)[C@H](Cc2ccc(O)cc2)NC(=O)[C@@H]2CCCN2C(C(=O)NC(C)(C)C)C(CSc2ccccc2)NC(=O)[C@H](C(C)C)NC(=O)[C@H](CC(=O)O)NC1=O (stereo partly shown) [Compound 1] | 0.988 | – | – | –
22 | CC(C)C[C@@H]1NC(=O)[C@@H]2CCN2C(=O)C[C@H](CCCCN)NC(=O)[C@@H]2CCCN2[C@H](C(=O)NC(C)(C)C)[C@H](C)NC(=O)[C@H]([C@@H](C)O)NC(=O)[C@H](CC(=O)O)NC1=O [Compound 319] | – | – | 309 nM | –
23 | CC(C)C[C@@H]1NC(=O)[C@H]2c3ccccc3CCN2C(=O)[C@@H]2CCCN2[C@H](C(=O)NC(C)(C)C)[C@H](C)NC(=O)[C@H]([C@@H](C)O)NC(=O)[C@H](CC(=O)O)NC1=O [Compound 98] | – | – | 58 nM | –
